Test results: patent US8003357B2, “Acidophilic enzymes” (Helmholtz-Zentrum Fuer Infektionsforschung GmbH, priority 2005, dated 2011)

tested on: αGluFA (acidic glucosidase); assay: Effect of cations and inhibitors on recombinant αGluFA activity; format: biochemical, Ferroplasma acidiphilum; settings: additive 10 mM
Description: (§1) The enzymes used for the tests were heterologously expressed in E. coli using genomic coding sequences obtained from Ferroplasma acidiphilum. The acidic enzymes according to the invention were expressed in E. coli using the genomiccoding sequence for the respective enzyme from Ferroplasma acidiphilum, which are described in detail below. For enzymatic conversions, reaction conditions were in 100 mM sodium acetate buffer, 100 mM citrate buffer, 100 mM HEPES buffer for 2 minutes at 30° C., using p-nitrophenol propionate as the substrate for esterase, starch in the case of glycosidases, and HindIII digested λ DNA for ligase.

Molecule | Activity (%) αGluFα
[Ca+2] [Ca^2+] | 91.2%
[Co+2] [Co^2+] | 72.0%
O=C(O)CN(CCN(CC(=O)O)CC(=O)O)CC(=O)O [EDTA] | 10.6%
[K+] [K^+] | 86.0%
[Li+] [Li^+] | 107.2%
[Mg+2] [Mg^2+] | 92.2%
N [NH4^+] | 103.8%
[Na+] [Na^+] | 86.3%
CCCCCCCCCCCCOS(=O)(=O)[O-].[Na+] [SDS] | 2.4%
[Sr+2] [Sr^2+] | 98.0%
[Zn+2] [Zn^2+] | 1.1%

same assay, conditions: additive 50 mM

Molecule | Activity (%) αGluFα
CCCCCCCCCCCCOS(=O)(=O)[O-].[Na+] [SDS] | 0.5%

same assay, conditions: additive 125 mM

Molecule | Activity (%) αGluFα
[Ca+2] [Ca^2+] | 74.1%
[Co+2] [Co^2+] | 82.8%
O=C(O)CN(CCN(CC(=O)O)CC(=O)O)CC(=O)O [EDTA] | 9.4%
[K+] [K^+] | 76.3%
[Li+] [Li^+] | 69.4%
[Mg+2] [Mg^2+] | 64.7%
N [NH4^+] | 58.8%
[Na+] [Na^+] | 74.0%
[Sr+2] [Sr^2+] | 71.3%
[Zn+2] [Zn^2+] | 16.2%

same assay, conditions: additive 1%

Molecule | Activity (%) αGluFα
Triton X-100 | 95.7%

same assay, conditions: additive 3%

Molecule | Activity (%) αGluFα
Triton X-100 | 47.4%

molecular target: αGluFA (Ferroplasma acidiphilum, UniProt Q5K3Q3); assay: Hydrolysis of glycosidic substrates by αGluFA; format: biochemical; settings: pH 3.0, 50° C., 100 μM FeCl2
Description: A variety of glycosidic substrates were examined for hydrolysis by αGluFA and kinetic constants were determined. For the assay, heterologously expressed αGluFA was incubated in 100 mM sodium citrate buffer, pH 3.0, containing 1% substrate, 100 μM FeCl2 and 5 μg αGluFA. […] Analysis was done by HPLC. Sample blanks were used for correction of spontaneous release of reducing sugar.
As substrates, sucrose, starch, amylose, amylopectin, pullulan and dextrin were used, the release of reducing sugars could also be determined by the dinitrosalicylic acid method, i.e. adding dinitrosalicylic acid solution to the reaction mixture, heating to 85° C. for 30 minutes, dilution with water and measuring absorbance at 450 nm. Activity towards p-nitrophenol α/β diglucopyranoside could be measured spectrophotometrically by following the absorbance at 346 nm using a molar extinction coefficient of 4800.

Chain of αGluFA (Q5K3Q3 entry or part of it): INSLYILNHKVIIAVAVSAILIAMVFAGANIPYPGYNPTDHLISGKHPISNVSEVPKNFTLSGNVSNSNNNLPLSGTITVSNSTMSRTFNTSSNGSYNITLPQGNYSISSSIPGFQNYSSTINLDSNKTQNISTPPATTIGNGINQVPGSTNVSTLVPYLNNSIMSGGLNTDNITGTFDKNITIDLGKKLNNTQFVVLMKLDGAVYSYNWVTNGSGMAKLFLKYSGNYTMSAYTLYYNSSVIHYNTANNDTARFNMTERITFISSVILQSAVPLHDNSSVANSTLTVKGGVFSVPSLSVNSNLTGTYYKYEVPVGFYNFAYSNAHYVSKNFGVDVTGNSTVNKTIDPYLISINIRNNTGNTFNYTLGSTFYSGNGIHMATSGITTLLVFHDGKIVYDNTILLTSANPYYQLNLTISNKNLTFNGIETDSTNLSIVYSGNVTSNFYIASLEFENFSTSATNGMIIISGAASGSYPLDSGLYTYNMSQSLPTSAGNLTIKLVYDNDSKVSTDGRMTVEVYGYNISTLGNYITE

Molecule | Kcat | Km
amylopectin | 89 ± 10.5 s⁻¹ | 1.05 ± 0.19 mg/mL
amylose | 126.0 ± 7.5 s⁻¹ | 7.49 ± 0.88 mg/mL
dextrin | 93.0 ± 11^ s^−1 | 0.221 ± 0.03 mg/mL
pullulan | 2.8 ± 0.1 s⁻¹ | 11.0 ± 0.1 mg/mL
soluble starch | 94.0 ± 11^ s^−1 | 0.11 ± 0.02 mg/mL

molecular target: EstFA (Ferroplasma acidiphilum, UniProt Q2PCE5); assay: Enantioselectivity of EstFA towards chiral esters and lactones; format: biochemical; settings: 100 mM citrate buffer pH 2.0, 5 μg EstFA, 10 hours
Description: For an estimation of enantioselectivity of EstFA towards chiral esters and lactones, a number of primary and secondary alcohols as well as carboxylic acids and lactones were hydrolysed.
The above substrate specificities were tested in 96-well plates, using 100 mM citrate buffer (pH 2.0) in the presence of 5 μg pure EstFA. For the substrate, the concentrations between 10 nM and 10 mM were chosen. Progress of the reaction was followed by spectrophotometry using p-nitrophenol propionate as an indicator. The reaction was stopped after 10 hours by adjusting the pH to 8.0 by adding sodium hydroxide from a 100 mM stock solution and phenol red (0.8 mM) as a pH indicator. […] Ester hydrolysis of enantiomerically pure esters was measured colorimetrically in 5.0 mM EPPS buffer (N-(2-hydroxyethyl) piperazine-N′-(3′-propanesulfonic acid) at pH 8.0 and phenol red after termination of the reaction.

Chain of EstFA (Q2PCE5 entry or part of it): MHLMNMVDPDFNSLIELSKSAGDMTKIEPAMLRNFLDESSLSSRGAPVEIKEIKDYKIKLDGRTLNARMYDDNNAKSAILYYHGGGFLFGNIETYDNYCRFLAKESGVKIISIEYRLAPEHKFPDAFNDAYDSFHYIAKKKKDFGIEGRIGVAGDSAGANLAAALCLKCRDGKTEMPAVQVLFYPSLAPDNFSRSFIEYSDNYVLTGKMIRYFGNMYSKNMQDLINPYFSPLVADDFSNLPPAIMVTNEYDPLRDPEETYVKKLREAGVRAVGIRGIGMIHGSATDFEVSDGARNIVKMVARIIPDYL

Molecule | % c | % e.e.
CCCC(=O)OC(C)c1ccccc1 (centres unmarked) [1-phenyl ethylbutyrate] | 36.2% | 33.7%
COC(=O)[C@H](C)N [alanine methylester] | 8.71% | 2.5%
O=C1CCC(CO)O1 (centres unmarked) [dihydro-5-hydroxymethyl-2(3H)-furanone] | 39.3% | 88.6%
CC(=O)OC1CC(C)CCC1C(C)C (centres unmarked) [menthyl acetate] | 42.2% | 78.4%
COC(=O)C(C)O (centres unmarked) [methyl lactate] | 3.4% | 2.38%
COC(=O)C(C)CO (centres unmarked) [methyl-3-hydroxy-2-methylpropionate] | 30.8% | 98%
COC(=O)CC(C)O (centres unmarked) [methyl-3-hydroxybutyrate] | 26.2% | 98%
CC1(C)COC(=O)C1O (centres unmarked) [pantolactone] | 10.06% | 39.36%
CCCC(=O)OCC1COC(C)(C)O1 (centres unmarked) [solketal butyrate] | 29.0% | 74.46%
COC(=O)[C@@H](N)Cc1c[nH]c2ccccc12 [tryptophane methylester] | 4.33% | 2.12%

same assay, conditions: enantioselectivity

Molecule | E
CCCC(=O)OC(C)c1ccccc1 (centres unmarked) [1-phenyl ethylbutyrate] | 2.4
COC(=O)[C@H](C)N [alanine methylester] | 3.8
O=C1CCC(CO)O1 (centres unmarked) [dihydro-5-hydroxymethyl-2(3H)-furanone] | 29.7
CC(=O)OC1CC(C)CCC1C(C)C (centres unmarked) [menthyl acetate] | 14.7
COC(=O)C(C)O (centres unmarked) [methyl lactate] | 1.1
COC(=O)C(C)CO (centres unmarked) [methyl-3-hydroxy-2-methylpropionate] | 116.2
COC(=O)CC(C)O (centres unmarked) [methyl-3-hydroxybutyrate] | 42.8
CC1(C)COC(=O)C1O (centres unmarked) [pantolactone] | 2.40
CCCC(=O)OCC1COC(C)(C)O1 (centres unmarked) [solketal butyrate] | 9.2
COC(=O)[C@@H](N)Cc1c[nH]c2ccccc12 [tryptophane methylester] | 1.1

tested on: LigFA (acidic ligase); assay: Effect of cations and inhibitors on recombinant LigFA activity; format: biochemical, Ferroplasma acidiphilum; settings: additive 10 mM
Description: as §1

Molecule | Activity (%) LigFA
[Ca+2] [Ca^2+] | 126.2%
[Co+2] [Co^2+] | 102.5%
O=C(O)CN(CCN(CC(=O)O)CC(=O)O)CC(=O)O [EDTA] | 17.2%
[K+] [K^+] | 129.9%
[Li+] [Li^+] | 101.6%
[Mg+2] [Mg^2+] | 157.0%
N [NH4^+] | 107.2%
[Na+] [Na^+] | 71.1%
CCCCCCCCCCCCOS(=O)(=O)[O-].[Na+] [SDS] | 32.6%
[Sr+2] [Sr^2+] | 90.7%
[Zn+2] [Zn^2+] | 5.3%

same assay, conditions: additive 50 mM

Molecule | Activity (%) LigFA
CCCCCCCCCCCCOS(=O)(=O)[O-].[Na+] [SDS] | 27.5%

same assay, conditions: additive 125 mM

Molecule | Activity (%) LigFA
[Ca+2] [Ca^2+] | 81.6%
[Co+2] [Co^2+] | 88.7%
O=C(O)CN(CCN(CC(=O)O)CC(=O)O)CC(=O)O [EDTA] | 7.0%
[K+] [K^+] | 93.8%
[Li+] [Li^+] | 107.9%
[Mg+2] [Mg^2+] | 126.8%
N [NH4^+] | 108.2%
[Na+] [Na^+] | 100%
[Sr+2] [Sr^2+] | 20.2%
[Zn+2] [Zn^2+] | 10.2%

same assay, conditions: additive 1%

Molecule | Activity (%) LigFA
Triton X-100 | 62.3%

same assay, conditions: additive 3%

Molecule | Activity (%) LigFA
Triton X-100 | 9.0%

tested on: EstFA (acidic esterase); assay: Effect of cations and inhibitors on recombinant EstFA activity; format: biochemical, Ferroplasma acidiphilum; parameters: substitution of Fe^2+ in EstFA: dose or concentration left out as unconfirmed; settings: added EDTA
Description: The enzymes used for the tests were heterologously expressed in E. coli using genomic coding sequences obtained from Ferroplasma acidiphilum.
The acidic enzymes according to the invention were expressed in E. coli using the genomiccoding sequence for the respective enzyme from Ferroplasma acidiphilum, which are described in detail below. For enzymatic conversions, reaction conditions were in 100 mM sodium acetate buffer, 100 mM citrate buffer, 100 mM HEPES buffer for 2 minutes at 30° C., using p-nitrophenol propionate as the substrate for esterase, starch in the case of glycosidases, and HindIII digested λ DNA for ligase.

Molecule | effect of complexing Fe^2+ on EstFA activity
O=C(O)CN(CCN(CC(=O)O)CC(=O)O)CC(=O)O [EDTA] | inhibited the activity of EstFA in a reversible manner

same assay, conditions: additive 1 mM

Molecule | Activity (%) EstFA
OCCS [mercaptoethanol] | 55%

same assay, conditions: additive 10 mM

Molecule | Activity (%) EstFA
[Ca+2] [Ca^2+] | 116.3%
[Co+2] [Co^2+] | 55.2%
O=C(O)CN(CCN(CC(=O)O)CC(=O)O)CC(=O)O [EDTA] | 16.0%
[K+] [K^+] | 108.5%
[Li+] [Li^+] | 100.2%
[Mg+2] [Mg^2+] | 106.1%
N [NH4^+] | 85.2%
[Na+] [Na^+] | 102.8%
CCCCCCCCCCCCOS(=O)(=O)[O-].[Na+] [SDS] | 75.2%
[Sr+2] [Sr^2+] | 102.1%
[Zn+2] [Zn^2+] | 57.8%

same assay, conditions: additive 50 mM

Molecule | Activity (%) EstFA
CCCCCCCCCCCCOS(=O)(=O)[O-].[Na+] [SDS] | 47.3%

same assay, conditions: additive 125 mM

Molecule | Activity (%) EstFA
[Ca+2] [Ca^2+] | 100.8%
[Co+2] [Co^2+] | 68.3%
O=C(O)CN(CCN(CC(=O)O)CC(=O)O)CC(=O)O [EDTA] | 9.5%
[K+] [K^+] | 115.7%
[Li+] [Li^+] | 48.0%
[Mg+2] [Mg^2+] | 116.8%
N [NH4^+] | 97.1%
[Na+] [Na^+] | 91.2%
[Sr+2] [Sr^2+] | 106.5%
[Zn+2] [Zn^2+] | 4.6%

same assay, conditions: additive 1%

Molecule | Activity (%) EstFA
Triton X-100 | 74.6%

same assay, conditions: additive 3%

Molecule | Activity (%) EstFA
Triton X-100 | 43.5%

same assay, conditions: as chloride salts

Molecule | substitution of Fe^2+ in EstFA
[Ca+2] [Ca^2+] | could not substitute Fe^2+
[Co+2] [Co^2+] | could not substitute Fe^2+
[Mg+2] [Mg^2+] | could not substitute Fe^2+
[Mn+2] [manganese] | could not substitute Fe^2+
[Cl][Ni][Cl] [nickel] | could not substitute Fe^2+
